Measurements published in patent US6664065B2, “Measuring viral reverse transcriptase activity” (priority 2000, dated 2003).

What was measured:
[1] = target: T1, rHIV RT (Human immunodeficiency virus type 1 group M subtype B, UniProt P03366); assay: TaqMan real-time RT-PCR assay of rHIV RT inhibition by a test agent; assay type: biochemical, HIV
T1 construct: rHIV RT—Worthington Biochemical catalogue No. 5006 (500 U at 12.5 U/μL); purchased Worthington Biochemical 5006
Description: In this regard, oligo dT is used as a template for rHIV RT. Oligo dT is complementary to the polyadenylated RNA-component of the total human heart RNA which present in the reaction mixture. rHIV RT forms cDNA from the oligo dT/RNA complex in the presence of dNTP nucleotides.
Thus, the temperature cycling conditions for rHIV RT were about 25° C. for 10 minutes, followed by about 37° C. for 60 minutes, and finally 95° C. for 5 minutes. At 95° C., the activity of rHIV RT was destroyed.
In this context, the test agent preferably is added when the template RNA, the primer which is complementary to the template RNA, and the dNTPs are mixed in the presence of the sample. Accordingly, although the sample may contain active RT, cDNA transcription by the RT can be inhibited by the presence of the test agent in the reaction mixture.
The inhibiting properties of the test agent are reflected in an increase in CT value for the sample which contains the test agent.
An rHIV RT solution (Master Mix solution)was prepared which contained 5 μL 10× RT reaction buffer, 11 μL 25 mM MgCl2, 10 μL 10 mM dNTP working stock solution, 2.5 μL 50 μM oligo dT, 1 μL RNAse inhibitor and 1.25 μL rHIV RT. The total volume of the Master Mix solution was 30.75 μL.
were added to 30.75 μL of the Master Mix solution. Thus, the reaction mixture contained 50 μL total solution volume.
The controls for the present example included a positive control containing 18.25 μL water plus 1 μL RNA, and a negative control containing 19.25 μL water. […]

[2] = target: T2, taq polymerase (Thermus aquaticus, UniProt P19821); assay: AZT included in the PCR reaction mixture in place of dT (TaqMan PCR step); assay type: biochemical
T2 construct: purchased Perkin Elmer PE 4304437
Source text: Next, an aliquot of the cDNA formed in the RT step above is brought into the Taqman® instrument (PE Model 7700) and put into a reaction mixture which contains Taqman® Universal master mix (taq polymerase in buffer), beta actin-specific forward primer, beta actin-specific reverse primer, and beta actin Taqman® probe. The PCR step takes place in the instrument under standard Taqman® PCR conditions. Although, as described above, the present method is depicted as a two test tube reaction, one skilled in the art will realize that these steps can be combined in a single reaction vessel.
The transcriptase reaction was initiated by placing the reaction mixture in a MWG Thermocycler, or equivalent, under thermocycling conditions at 25° C. for 10 minutes, then at 37° C. for 60 minutes, and finally at 95° C. for 5 minutes. This final thermocycling step deactivated the rHIV RT. Next 5 μL of the post-thermocycle RT reaction mixture, which presumably contained cDNA, were added to 45 μL of the Master Mix solution. The Master Mix Solution contained 25 μL 2×Taqman Universal Master Mix, 5 μL beta Actin Forward Primer, 5 μL Beta Actin Reverse Primer and […]. Thus, the total PCR reaction mixture contained 50 μL. […]

[3] = AZT 1.25 mM down to 250 μM in RT reaction mixture with a fixed concentration of dT, all concentrations

T2 sequence (P19821 whole entry): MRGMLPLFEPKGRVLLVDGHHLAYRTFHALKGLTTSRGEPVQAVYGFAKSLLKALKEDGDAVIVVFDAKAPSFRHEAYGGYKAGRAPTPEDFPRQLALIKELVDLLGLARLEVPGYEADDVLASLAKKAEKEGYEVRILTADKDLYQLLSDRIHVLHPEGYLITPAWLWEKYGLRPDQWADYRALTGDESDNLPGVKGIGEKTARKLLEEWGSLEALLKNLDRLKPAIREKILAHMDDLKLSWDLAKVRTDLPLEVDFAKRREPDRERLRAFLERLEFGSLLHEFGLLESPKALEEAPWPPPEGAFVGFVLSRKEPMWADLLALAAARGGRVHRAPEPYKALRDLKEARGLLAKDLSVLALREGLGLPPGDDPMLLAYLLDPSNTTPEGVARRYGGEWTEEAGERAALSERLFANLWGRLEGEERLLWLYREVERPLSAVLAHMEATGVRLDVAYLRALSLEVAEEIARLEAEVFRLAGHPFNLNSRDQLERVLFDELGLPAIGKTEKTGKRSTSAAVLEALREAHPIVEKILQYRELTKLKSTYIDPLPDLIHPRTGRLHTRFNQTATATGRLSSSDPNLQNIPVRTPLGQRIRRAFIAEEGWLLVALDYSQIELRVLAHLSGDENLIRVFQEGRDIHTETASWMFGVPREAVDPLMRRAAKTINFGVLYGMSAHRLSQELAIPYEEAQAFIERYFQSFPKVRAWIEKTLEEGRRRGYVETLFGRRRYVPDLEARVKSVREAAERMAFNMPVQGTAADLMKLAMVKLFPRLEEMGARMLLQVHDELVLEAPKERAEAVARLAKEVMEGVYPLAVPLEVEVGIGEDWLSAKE

Cc1cn([C@H]2C[C@H](N=[N+]=[N-])[C@@H](CO)O2)c(=O)[nH]c1=O [AZT]
amplification of cDNA after the PCR step ([1]; AZT 250 μM to 1.25 mM added to the rHIV-RT reaction mixture in place of dT): no amplification of cDNA was observed | inhibition of activity [1, 3]: 100% | observed CT [1, 3]: greater than 40 cycles | amplification of the cDNA after the PCR step [2]: NO amplification
